Test results: ChEMBL document CHEMBL1201862, “PubChem BioAssay data set” (2004)
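Protocol summary: plate cells (96-well), add compound at 5 concentrations, incubate 48 h, interpolate endpoints linearly. Abbreviation: GI50, concentration required for 50% inhibition of growth.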 The source made the active and inactive calls. Rule as the data show it: active = GI50 up to about 1.1 µM and inactive = higher.

Legend:
Test in all cases: NCI-60 cell line screen, 48 h
SNB-75 = tested on: SNB-75
HCT-15 = tested on: HCT-15
Hs-578T = tested on: Hs-578T
SF-268 = tested on: SF-268
NCI-H226 = tested on: NCI-H226
OVCAR-3 = tested on: OVCAR-3
NCI-H460 = tested on: NCI-H460
OVCAR-5 = tested on: OVCAR-5
NCI-H23 = tested on: NCI-H23
CCRF-CEM = tested on: CCRF-CEM
TK-10 = tested on: TK-10
UACC-62 = tested on: UACC-62
MOLT-4 = tested on: MOLT-4
SW-620 = tested on: SW-620
NCI/ADR-RES = tested on: NCI/ADR-RES
NCI-H522 = tested on: NCI-H522
EKVX = tested on: EKVX
RXF 393 = tested on: RXF 393
Malme-3M = tested on: Malme-3M
COLO 205 = tested on: COLO 205
SNB-19 = tested on: SNB-19
OVCAR-4 = tested on: OVCAR-4
BT-549 = tested on: BT-549
A549 = tested on: A549
MDA-MB-435 = tested on: MDA-MB-435
SK-MEL-28 = tested on: SK-MEL-28
LOX IMVI = tested on: LOX IMVI
HOP-92 = tested on: HOP-92
OVCAR-8 = tested on: OVCAR-8
RPMI-8226 = tested on: RPMI-8226
MCF7 = tested on: MCF7
SN12C = tested on: SN12C
HOP-62 = tested on: HOP-62
SK-MEL-2 = tested on: SK-MEL-2
786-0 = tested on: 786-0
SK-MEL-5 = tested on: SK-MEL-5
HL-60 = tested on: HL-60
T47D = tested on: T47D
KM12 = tested on: KM12
UO-31 = tested on: UO-31
U-251 = tested on: U-251
A498 = tested on: A498
CAKI-1 = tested on: CAKI-1
MDA-N = tested on: MDA-N
DU-145 = tested on: DU-145
SF-539 = tested on: SF-539
K562 = tested on: K562
ACHN = tested on: ACHN
SF-295 = tested on: SF-295
PC-3 = tested on: PC-3
SK-OV-3 = tested on: SK-OV-3
MDA-MB-231 = tested on: MDA-MB-231
M14 = tested on: M14
IGROV-1 = tested on: IGROV-1
HCT-116 = tested on: HCT-116
HT-29 = tested on: HT-29
UACC-257 = tested on: UACC-257
SR = tested on: SR
HCC 2998 = tested on: HCC 2998

`COc1ccc(C=O)cc1OS(=O)(=O)C(F)(F)C(F)(F)C(F)(F)C(F)(F)F` was tested, and the GI50 (SNB-75) was 31.2 µM (inactive), the GI50 (HCT-15) was 26.9 µM and the GI50 (Hs-578T) was 22.6 µM (inactive). For the same compound, the GI50 (SF-268) was 26.5 µM (inactive), the GI50 (NCI-H226) was > 100 µM (inactive) and the GI50 (OVCAR-3) was 27 µM (inactive). The GI50 (NCI-H460) was 27.2 µM (inactive), the GI50 (OVCAR-5) was 50.7 µM (inactive) and the GI50 (NCI-H23) was 32.1 µM (inactive). For the same compound, the GI50 (CCRF-CEM) was 14.8 µM (inactive), the GI50 (TK-10) was > 49.5 µM (inactive) and the GI50 (UACC-62) was 21.4 µM (inactive). For the same compound, the GI50 (MOLT-4) was 3.23 µM (inactive), the GI50 (SW-620) was 24.9 µM (inactive) and the GI50 (NCI/ADR-RES) was 21 µM (inactive). For the same compound, the GI50 (NCI-H522) was 24.5 µM (inactive), the GI50 (EKVX) was 33.3 µM (inactive) and the GI50 (RXF 393) was 21.3 µM (inactive). The GI50 (Malme-3M) was 23.4 µM (inactive), the GI50 (COLO 205) was 24.5 µM (inactive) and the GI50 (SNB-19) was 42.1 µM (inactive). The GI50 (OVCAR-4) was 43.8 µM (inactive), the GI50 (BT-549) was 30.2 µM (inactive) and the GI50 (A549) was 48.4 µM (inactive). The GI50 (MDA-MB-435) was 19.9 µM (inactive), the GI50 (SK-MEL-28) was 24.4 µM (inactive) and the GI50 (LOX IMVI) was 15.2 µM (inactive). The GI50 (HOP-92) was 13.2 µM (inactive), the GI50 (OVCAR-8) was 28.1 µM (inactive) and the GI50 (RPMI-8226) was 21.8 µM (inactive). The GI50 (MCF7) was 26.1 µM (inactive), the GI50 (SN12C) was 42.1 µM (inactive) and the GI50 (HOP-62) was 26.6 µM (inactive). For the same compound, the GI50 (SK-MEL-2) was 17.1 µM (inactive), the GI50 (786-0) was 31.6 µM (inactive) and the GI50 (SK-MEL-5) was 15.5 µM (inactive). For the same compound, the GI50 (HL-60) was 8.75 µM (inactive), the GI50 (T47D) was 41.7 µM (inactive) and the GI50 (KM12) was 28.4 µM (inactive). For the same compound, the GI50 (UO-31) was 22.8 µM (inactive), the GI50 (U-251) was 22.9 µM (inactive) and the GI50 (A498) was 3.72 µM (inactive). For the same compound, the GI50 (CAKI-1) was 40.3 µM (inactive), the GI50 (MDA-N) was 19 µM (inactive) and the GI50 (DU-145) was > 68.2 µM (inactive). For the same compound, the GI50 (SF-539) was 18.5 µM (inactive), the GI50 (K562) was 3.52 µM (inactive) and the GI50 (ACHN) was 44.5 µM (inactive). The GI50 (SF-295) was 22.1 µM (inactive), the GI50 (PC-3) was 32.3 µM (inactive) and the GI50 (SK-OV-3) was 30.4 µM (inactive). For the same compound, the GI50 (MDA-MB-231) was 23.6 µM (inactive), the GI50 (M14) was 28 µM (inactive) and the GI50 (IGROV-1) was 24.9 µM (inactive). The GI50 (HCT-116) was 27.2 µM (inactive), the GI50 (HT-29) was 29.9 µM (inactive) and the GI50 (UACC-257) was 36.6 µM (inactive). The GI50 (SR) was 6.27 µM (inactive).
For `CC(C)(CO)CNc1cc(=O)[nH]c(N)n1`, the GI50 (SNB-75) was > 100 µM (inactive), the GI50 (HCT-15) was greater than 100 µM and the GI50 (Hs-578T) was > 100 µM (inactive). The GI50 (SF-268) was > 100 µM (inactive), the GI50 (NCI-H226) was > 100 µM (inactive) and the GI50 (OVCAR-3) was > 100 µM (inactive). The GI50 (NCI-H460) was > 100 µM (inactive), the GI50 (OVCAR-5) was > 100 µM (inactive) and the GI50 (NCI-H23) was > 100 µM (inactive). For the same compound, the GI50 (CCRF-CEM) was > 100 µM (inactive), the GI50 (UACC-62) was > 100 µM (inactive) and the GI50 (MOLT-4) was > 100 µM (inactive). For the same compound, the GI50 (SW-620) was > 100 µM (inactive), the GI50 (NCI/ADR-RES) was > 100 µM (inactive) and the GI50 (NCI-H522) was > 100 µM (inactive). The GI50 (EKVX) was > 100 µM (inactive), the GI50 (RXF 393) was > 100 µM (inactive) and the GI50 (Malme-3M) was > 100 µM (inactive). The GI50 (COLO 205) was > 100 µM (inactive), the GI50 (SNB-19) was > 100 µM (inactive) and the GI50 (OVCAR-4) was > 100 µM (inactive). For the same compound, the GI50 (BT-549) was > 100 µM (inactive), the GI50 (A549) was > 100 µM (inactive) and the GI50 (MDA-MB-435) was > 100 µM (inactive). For the same compound, the GI50 (SK-MEL-28) was > 100 µM (inactive), the GI50 (LOX IMVI) was > 100 µM (inactive) and the GI50 (HCC 2998) was > 100 µM (inactive). For the same compound, the GI50 (HOP-92) was > 100 µM (inactive), the GI50 (OVCAR-8) was > 100 µM (inactive) and the GI50 (RPMI-8226) was > 100 µM (inactive). For the same compound, the GI50 (MCF7) was > 100 µM (inactive), the GI50 (SN12C) was > 100 µM (inactive) and the GI50 (HOP-62) was > 100 µM (inactive). The GI50 (SK-MEL-2) was > 100 µM (inactive), the GI50 (786-0) was > 100 µM (inactive) and the GI50 (SK-MEL-5) was > 100 µM (inactive). For the same compound, the GI50 (HL-60) was > 100 µM (inactive), the GI50 (T47D) was > 100 µM (inactive) and the GI50 (KM12) was > 100 µM (inactive). For the same compound, the GI50 (UO-31) was > 100 µM (inactive), the GI50 (U-251) was > 100 µM (inactive) and the GI50 (A498) was > 100 µM (inactive). The GI50 (CAKI-1) was > 100 µM (inactive), the GI50 (MDA-N) was > 100 µM (inactive) and the GI50 (DU-145) was > 100 µM (inactive). The GI50 (K562) was > 100 µM (inactive), the GI50 (ACHN) was > 100 µM (inactive) and the GI50 (SF-295) was > 100 µM (inactive). The GI50 (PC-3) was > 100 µM (inactive), the GI50 (SK-OV-3) was > 100 µM (inactive) and the GI50 (MDA-MB-231) was > 100 µM (inactive). The GI50 (M14) was > 100 µM (inactive), the GI50 (IGROV-1) was > 100 µM (inactive) and the GI50 (HCT-116) was > 100 µM (inactive). For the same compound, the GI50 (HT-29) was > 100 µM (inactive), the GI50 (UACC-257) was > 100 µM (inactive) and the GI50 (SR) was > 100 µM (inactive).
